Results taken from patent US9700596B2, “Locally released growth factors to mediate motor recovery after stroke” (The Regents of the University of California, priority 2011, dated 2017).
Entries after “also recorded” stand apart in the source; their conditions may differ.

B1: brain derived neurotrophic factor (protein)
chain: HSDPARRGELSVCDSISEWVTAADKKTAVDMSGGTVTVLEKVPVSKGQLKQYFYETKCNPMGYTKEGCRGIDKRHWNSQCRTTQSYVRALTMDSKKRIGWRFIRIDTSCVCTLTIKRGR
notes: growth factor, delivered through HYSTEM-C from 7 days after stroke

What was measured:
[1] = CFM2 50 μmol/kg i.p. bid; cited from earlier work
[2] = test system: focal stroke in forelimb motor cortex; assay: Single-pellet skilled-reaching task after stroke; type: in vivo, mouse; conditions: CFM2 50 μmol/kg i.p. bid from 5 d after stroke
Description: For loss-of-function studies assessing CFM2, the single-pellet skilled-reaching task was used (Conner et al. (2005) Neuron 46: 173-179). Before stroke, animals were trained for […] to successfully reach and retrieve 20 mg sugar pellets (Bio-Serv). A three lane Plexiglas reaching apparatus (30 cm deep, 10 cm wide, and 30 cm high for each lane) was constructed to allow simultaneous recording of three animals. Each lane consists of two 5 mm slots situated against the front-right and front-left walls of the chamber to force the mouse the reach for the pellets using either their right or left forepaws. A 5-mm-thick plastic shelf was mounted 15 mm from the floor at the front of the box.
During the training period, mice were fasted to 90% of their body weight and maintained at this level for the full 3 week training period. […]
All mice were fasted the night before testing. Pellets were presented one at a time and reaches were recorded with a Canon VIXIA HV30 video recorder. […] If an animal reached through the slot and obtained/grasped a food pellet and brought the pellet back through the slot, the reach was scored as a success. If an animal knocked the pellet away or dropped the pellet after grasping it, the reach was scored as a miss. The performance of each mouse was scored as follows: percentage success[…](number of successful retrievals/15)*100.

[3] = test system: focal stroke in forelimb motor cortex; assay: Grid-walking task (footfaults) after photothrombotic focal stroke; type: in vivo, mouse; conditions: for number of forelimb footfaults / function of impaired forelimb, grid-walking: i.p. twice daily from 5 d after stroke for 6 weeks, CX1837 0.33 or 1 mg/kg, CX1739 3 or 30 mg/kg, CFM2 50 μmol/kg, vs stroke plus vehicle
Description: (§1) Focal stroke was induced by photothrombosis in adult male C57BL/6 mice weighing 20-25 g as previously described (Clarkson et al. (2010) Nature 468: 305-309).
(§2) CX1837 (0.33 and 1 mg/kg) and CX1739 (3 and 30 mg/kg) were dissolved in 30% hydroxypropyl_β-cyclodextran (HPCD) (made 1:1 in 0.9% saline and distilled H2O) and administered intraperitoneally twice daily starting 5 d after stroke for a period of 6 weeks. The AMPAR antagonist CFM2 ([…]) (De Sarro et al. (1999) Eur. J. Pharmacol., 368: 149-159) was administered intraperitoneally twice daily for 6 weeks.
A hyaluronan/heparin sulfate proteoglycan biopolymer hydrogel (Extracel-HP, a.k.a., HYSTEM®-HP; BioTime,) was used to locally deliver TrkB-Fc (5 μg/ml) and human IgG-Fc (antibody and vehicle control) to the periinfarct cortex (Li et al. (2010) Nat. Neurosci. 13: 1496-1504). This hydrogel was chosen because it is composed of naturally occurring brain extracellular matrix constituents; remains liquid for a period after mixing so that it can be injected into the brain through a small, minimally invasive needle; and will gel within the stroke cavity, conforming to the boundaries of this cavity. We have shown that this hydrogel releases small and large proteins for up to 4 weeks from the infarct cavity after stroke. Five days after stroke, 10 μl of Extracel-HP (HYSTEM®-HP), impregnated with TrkB-Fc (5 μg/ml) or human IgG-Fc (vehicle), was injected directly into the stroke infarct cavity using a 30 gauge needle attached to a Hamilton syringe. Extracel-HP was prepared according to the manufacturer's instructions. […]
(§3) Animals were tested once on both the grid-walking and cylinder tasks, 1 week before surgery to establish baseline performance levels. For the reaching task, mice were trained for a period of 14 d and subsequently tested on day 15 to establish a baseline reading. […] Behaviors were scored by observers who were blind to the treatment group of the animals in the study as previously described (Clarkson et al. (2010) Nature 468: 305-309). […]

BDNF = BDNF ELISA of cortical tissue 7 d after stroke; type: in vivo, mouse; conditions: treatment from day 5, CX1837 1 mg/kg, CX1739 3 mg/kg, vs stroke plus vehicle
Description: (§4) Tissue was collected from around the stroke site from stroke plus vehicle, stroke plus CX1837 (1 mg/kg), and stroke plus CX1739 (3 mg/kg), and control groups 7 d after stroke. Cortical tissue was dissected in a 1 mm radius around the stroke infarct core, including the core itself, and flash frozen on dry ice.
Equal volumes of tissue were homogenized in […] of homogenization buffer [Complete Protease Inhibitor Tablet (Invitrogen), 1 mM phenylmethylsulfonylfluoride, 50 mM Tris-HCl, 5 mM EDTA, 10 mM EGTA, 1% Triton X-100] for ˜1 min. Tissue and homogenization buffer were incubated on ice for 30 min, followed by a 5 min spin at 14,000 rpm. The supernatant was collected and total protein concentrations were determined using the DC Protein Assay (Bio-Rad). BDNF was measured using the BDNF ELISA Emax Immunoassay System (Promega) as per the manufacturer's instructions. BDNF levels were determined relative to a standard curve constructed from measures of kit-supplied BDNF protein standards (0-500 pg of BDNF protein) that were assayed simultaneously with the experimental samples. BDNF levels are expressed as picograms of BDNF per 100 μg of sample protein.

TrkB = assay: TrkB/p-Trk immunoblotting of cortical tissue 7 d after stroke; type: in vivo, mouse; conditions: CX1837 1 mg/kg, CX1739 3 mg/kg, vs stroke plus vehicle
Description: as §4
For immunoblotting experiments, protein (10 μg) was loaded onto a 12% SDS-polyacrylamide gel, subjected to electrophoresis, and transferred to a pure nitrocellulose membrane (GE Healthcare). The membrane was blocked in 10% nonfat milk and probed with polyclonal antibodies specific for anti-TrkB (1:1000; Santa Cruz Biotechnology) and anti-p-Trk (1:5000; Santa Cruz Biotechnology). The blots were incubated with peroxidase-labeled anti-rabbit IgG (1:2000; Vector Laboratories) and immunoreactive proteins were visualized using enhanced chemiluminescence (GE Healthcare). β-Actin was used as a loading control (1:5000; Abcam). Optical density (OD) was determined using the NIH ImageJ software. Pixel intensities were converted to OD using the calibration curve of the software, and background-subtracted values were expressed as OD/[…] total protein.

[4] = test system: hilar EPSPs (dentate gyrus of the hippocampus)
Description: Male Long-Evans rats (250-350 g) were anesthetized by pentobarbital (60 mg/kg, i.p.) and maintained under anesthesia by pentobarbital infusion (2-4 mg·kg-^1·h^−1). Under anesthesia, animals were placed in a stereotaxic frame and small holes were drilled into the skull of the left hemisphere to allow the positioning of a stimulating electrode (−7.8 to −8.1 AP; 4.2 to 4.4 ML) and a recording electrode (−3.0 to −3.3 AP; 1.6 to 2.2 ML). A monopolar stainless-steel stimulating electrode (175 μm, insulated with Formvar) was lowered into the perforant path together with a platinum/iridium recording electrode (75 μm) into the hilus of the dentate gyms of the hippocampus. The current used to elicit an evoked potential was adjusted to produce a response size 50-60% of the maximal spike-free amplitude. Evoked hilar EPSPs were recorded in response to single-pulse stimulation delivered at a frequency of one pulse per 20 s.
Data acquisition and analysis was performed using commercially available software (NAC and NACSHOW).

[5] = test system: focal stroke in forelimb motor cortex; assay: Spontaneous-forelimb (cylinder) task after photothrombotic focal stroke; type: in vivo, mouse; conditions: i.p. twice daily from 5 d after stroke for 6 weeks; CX1837 0.33 or 1 mg/kg, CX1739 3 or 30 mg/kg; vs stroke plus vehicle
Description: as §1, §2
A hyaluronan/heparin sulfate proteoglycan biopolymer hydrogel (Extracel-HP, a.k.a., HYSTEM®-HP; BioTime,) was used to locally deliver TrkB-Fc (5 μg/ml) and human IgG-Fc (antibody and vehicle control) to the periinfarct cortex (Li et al. (2010) Nat. Neurosci. 13: 1496-1504). […]
as §3

Molecule	general behavioral side effects (reduced motor activity, impaired grooming, weight loss) [1]	successful pellet retrieval with impaired right forelimb [2]	number of forelimb footfaults / function of impaired forelimb, grid-walking [3]	BDNF levels in periinfarct cortex (BDNF)	TrkB phosphorylation in periinfarct cortex (TrkB)	excitability ceiling of the EPSP amplitude effect (dose) ([4]; i.p., anesthetized rats)	crossing of the blood-brain barrier when given systemically ([4]; rat, in vivo, ip)	forelimb asymmetry (left/right ratio), cylinder task [5]	forelimb footfaults / functional recovery with hydrogel-delivered BDNF ([3]; injected 7 days after stroke, 4 weeks after injection, 5 weeks after stroke)
COc1cc2c(cc1OC)C(c1ccc(N)cc1)=NNC(=O)C2 [CFM2]	did not produce general behavioral side effects	significant impairment in the ability to retrieve pellets successfully out to 2 weeks after stroke; also recorded: decrease in the number of pellets successfully retrieved	significant impairment in the normal gain of motor function; also recorded: significant increase in the number of footfaults						
CN(C(=O)c1ccc2nonc2c1)C1CCOCC1 [CX1739]			small decrease in the number of footfaults; also recorded: small yet non-significant decrease in the number of footfaults	did not change the level of BDNF expression	did not change the level of TrkB phosphorylation	10 mg/kg	cross the blood-brain barrier	small increase in the use of the right-impaired forelimb; also recorded: did not result in a decrease in the left/ratio	
B1									significant improvements in functional recovery
